One data set concerns the target T1, human GLP-1 receptor (Homo sapiens, UniProt P43220).
T1 construct: host or cells: CHO-K1
Nature of the data set: cAMP activity test (cAMP dynamic HTRF kit) in CHO-K1/GLP-1 receptor-expressing cells. The data set is classed as cell-based. As to conditions: cAMP activity, CHO-K1/GLP-1 receptor-expressing cells; read-out: EC50. On the procedure: The next day, the medium was removed, and a 50 uL of HBSS medium containing 0.1% BSA, 0.5 mM IBMX, and 5 mM HEPES was added to each well. […] The cAMP activity was measured according to the manufacturer's instructions using the cAMP dynamic HTRF kit (Cisbio, 62AM4PEC). After incubation, the medium was discarded, and the cells were lysed. cAMP-d2 and anti-cAMP cryptate conjugate were added thereto and reacted for 3 hours. […] Intracellular cAMP competes with cAMP-d2 for anti-cAMP cryptate, and the measured signal of fluorescence resonance energy transfer (FRET) is inversely proportional to intracellular cAMP.
(Time-resolved FRET reads energy transfer from a long-lived donor to a nearby acceptor.)

The next data set deals with T2, hERG (Homo sapiens, UniProt Q12809).
T2 construct: purchased Invitrogen PV5365
Description: hERG inhibition test (Predictor hERG Fluorescence Polarization assay kit). In kind it is binding. As to conditions: probe kit Tracer (fluorescent hERG ligand), hERG % inhibition at 10 uM, relative to E-4031 and solvent control. The procedure: To measure the hERG (Human ether-a-go-go-related gene) channel inhibition rate of the compound according to the present invention, the following test was performed using a Predictor hERG Fluorescence Polarization assay kit (Invitrogen, PV5365).
Specifically, a test substance was dissolved in DMSO to prepare a 50 mM solution. A 4 mM solution was prepared by diluting the 50 mM solution with DMSO in a U bottom 96-well plate (SPL, 34096), and was then diluted 100-fold with a test buffer to prepare a 40 uM (4×) solution. The positive control E-4031 (3 mM) provided in the kit was diluted 25-fold with a test buffer to prepare a 120 uM solution) 5 uL of the diluted test substance solution was dispensed into a 384-well assay plate (corning, 3677). hERG Membrane (2×) and Tracer (4×) provided in the kit were respectively added at 10 uL and 5 uL, and then subjected to the reaction at room temperature for 2.5 hours. After completion of the reaction, fluorescence polarization (mP) was measured with a Multimode Plate Reader (Perkin-Elmer, Envision) (excitation wavelength of 531 nm, and emission wavelength 579 nm). The value of the percent inhibitory activity (% inhibition) at 10 uM of each test substance was calculated by the following equation, and the results are shown in Table 2: (% inhibition)=100−{(mP of the compound according to the present invention−E-4031 mP)/(mP of the solvent control−E-4031 mP)}×100

T1 sequence (P43220 24-463): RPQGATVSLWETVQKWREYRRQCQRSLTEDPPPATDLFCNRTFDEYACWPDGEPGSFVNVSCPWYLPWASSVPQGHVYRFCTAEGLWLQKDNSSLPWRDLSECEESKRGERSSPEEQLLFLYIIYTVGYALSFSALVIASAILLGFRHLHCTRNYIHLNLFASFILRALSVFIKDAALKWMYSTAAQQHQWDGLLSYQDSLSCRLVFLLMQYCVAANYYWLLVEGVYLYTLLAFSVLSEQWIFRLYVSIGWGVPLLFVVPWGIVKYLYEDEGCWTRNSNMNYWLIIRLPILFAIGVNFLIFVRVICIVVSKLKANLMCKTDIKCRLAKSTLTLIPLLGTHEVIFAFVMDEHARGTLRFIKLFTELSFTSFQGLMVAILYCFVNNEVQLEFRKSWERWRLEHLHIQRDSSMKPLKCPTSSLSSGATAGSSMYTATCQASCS
T2 sequence (Q12809 whole entry): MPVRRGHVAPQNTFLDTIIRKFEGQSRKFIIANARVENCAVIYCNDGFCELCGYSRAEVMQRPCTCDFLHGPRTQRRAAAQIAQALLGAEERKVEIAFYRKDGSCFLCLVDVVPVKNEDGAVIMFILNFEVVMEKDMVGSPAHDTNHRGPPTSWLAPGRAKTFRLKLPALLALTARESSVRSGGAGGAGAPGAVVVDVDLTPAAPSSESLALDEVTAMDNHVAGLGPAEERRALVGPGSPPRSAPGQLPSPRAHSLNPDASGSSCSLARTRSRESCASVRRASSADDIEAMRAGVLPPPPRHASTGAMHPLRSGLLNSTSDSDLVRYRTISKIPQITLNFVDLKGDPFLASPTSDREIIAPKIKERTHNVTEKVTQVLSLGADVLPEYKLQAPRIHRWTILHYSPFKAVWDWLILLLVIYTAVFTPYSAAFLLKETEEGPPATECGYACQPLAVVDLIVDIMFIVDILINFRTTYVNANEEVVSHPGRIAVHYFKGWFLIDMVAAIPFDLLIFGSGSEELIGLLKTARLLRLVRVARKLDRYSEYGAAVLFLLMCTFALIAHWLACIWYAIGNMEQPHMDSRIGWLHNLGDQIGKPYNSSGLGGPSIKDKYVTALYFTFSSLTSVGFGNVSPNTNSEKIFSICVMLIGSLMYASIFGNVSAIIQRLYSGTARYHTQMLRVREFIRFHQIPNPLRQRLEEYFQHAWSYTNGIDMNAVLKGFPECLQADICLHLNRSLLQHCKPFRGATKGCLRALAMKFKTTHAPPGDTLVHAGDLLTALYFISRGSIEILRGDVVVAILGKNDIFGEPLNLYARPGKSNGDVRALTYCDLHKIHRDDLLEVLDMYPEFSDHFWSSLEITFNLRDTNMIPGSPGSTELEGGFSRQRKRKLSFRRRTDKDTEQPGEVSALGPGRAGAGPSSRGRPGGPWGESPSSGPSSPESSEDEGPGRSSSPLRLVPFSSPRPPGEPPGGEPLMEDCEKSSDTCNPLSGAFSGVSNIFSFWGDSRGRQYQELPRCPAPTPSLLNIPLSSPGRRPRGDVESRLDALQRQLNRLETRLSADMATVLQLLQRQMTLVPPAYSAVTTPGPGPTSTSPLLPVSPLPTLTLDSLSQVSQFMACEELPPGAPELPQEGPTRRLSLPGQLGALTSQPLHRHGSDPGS

`Cc1cccc(COc2cccc(-c3ccc(Cc4nc5ccc(C(=O)O)cc5n4CC4CCCO4)c(F)c3)n2)c1` (stereo not shown) [Example 80, 2-(2-fluoro-4-(6-(3-methylbenzyloxy)pyridin-2-yl)benzyl)-1-((tetrahydrofuran-2-yl)methyl)-1H-benzo[d]imidazole-6-carboxylic acid]: the EC50 at human GLP-1 receptor stood at 190 nM. Further, the inhibition at 2.5 h, 10 µM on hERG was -25.2%.
For the compound `O=C(O)c1ccc2nc(Cc3ccc(-c4ccc(F)c(OCc5ccc(Cl)cc5F)c4)c(F)c3)n(CC3CCCO3)c2c1` (stereo not shown) [Example 92, 2-((3′-(4-chloro-2-fluorobenzyloxy)-2,4′-difluorobiphenyl-4-yl)methyl)-1-((tetrahydrofuran-2-yl)methyl)-1H-benzo[d]imidazole-6-carboxylic acid], the concentration for a half-maximal effect (EC50) at human GLP-1 receptor was 78 nM. In addition, the inhibition at 2.5 h, 10 µM on hERG is 8.68%.
Regarding `O=C(O)c1ccc2nc(Cc3ccc(-c4cccc(OCc5ccc(Cl)cc5F)c4)cc3F)n(C[C@H]3CCCO3)c2c1` [Example 41, (R)-2-((3′-(4-chloro-2-fluorobenzyloxy)-3-fluorobiphenyl-4-yl)methyl)-1-((tetrahydrofuran-2-yl)methyl)-1H-benzo[d]imidazole-6-carboxylic acid], the EC50 on human GLP-1 receptor came out at 110 nM. Moreover, on hERG, the inhibition at 2.5 h, 10 µM was -16%.
On to `Cc1cccc(COc2cccc(-c3ccc(Cc4nc5ccc(C(=O)O)cc5n4CC4CCCO4)cc3F)n2)c1` (stereo not shown) [Example 90, 2-(3-fluoro-4-(6-(3-methylbenzyloxy)pyridin-2-yl)benzyl)-1-((tetrahydrofuran-2-yl)methyl)-1H-benzo[d]imidazole-6-carboxylic acid], for which the EC50 at human GLP-1 receptor was 250 nM. In addition, the inhibition at 2.5 h, 10 µM at hERG is 20.2%.
With `O=C(O)c1ccc2nc(Cc3ccc(-c4ccc(F)c(OCc5ccc(Cl)cc5F)n4)cc3F)n(CC3CCCO3)c2c1` (stereo not shown) [Example 91, 2-(4-(6-(4-chloro-2-fluorobenzyloxy)-5-fluoropyridin-2-yl)-2-fluorobenzyl)-1-((tetrahydrofuran-2-yl)methyl)-1H-benzo[d]imidazole-6-carboxylic acid], the EC50 at human GLP-1 receptor amounted to 7.2 nM. For the same compound, the inhibition at 2.5 h, 10 µM at hERG is -68.2%.
Turning to `O=C(O)c1ccc2nc(Cc3cc(F)c(-c4cccc(OCc5ccc(Cl)cc5F)n4)cc3F)n(C[C@@H]3CCCO3)c2c1` [Example 116, (S)-2-(4-(6-((4-chloro-2-fluorobenzyl)oxy)pyridin-2-yl)-2,5-difluorobenzyl)-1-((tetrahydrofuran-2-yl)methyl)-1H-benzo[d]imidazole-6-carboxylic acid], the EC50 at human GLP-1 receptor was less than 3.2 nM. Besides, the inhibition at 2.5 h, 10 µM on hERG was 5.86%.
For `N#Cc1ccc(COc2cccc(-c3ccc(Cc4nc5ccc(C(=O)O)cc5n4C[C@@H]4CCCO4)c(F)c3)n2)c(F)c1` [Example 66, (S)-2-(4-(6-(4-cyano-2-fluorobenzyloxy)pyridin-2-yl)-2-fluorobenzyl)-1-((tetrahydrofuran-2-yl)methyl)-1H-benzo[d]imidazole-6-carboxylic acid], on human GLP-1 receptor, the EC50 was determined as 4.6 nM. Also, the inhibition at 2.5 h, 10 µM at hERG is -7.97%.
The corresponding values for `COCCn1c(Cc2ccc(-c3cccc(OCc4ccc(Cl)cc4F)n3)cc2[N+](=O)[O-])nc2ccc(C(=O)O)cc21` [Example 5, 2-(4-(6-(4-chloro-2-fluorobenzyloxy)pyridin-2-yl)-2-nitrobenzyl)-1-(2-methoxyethyl)-1H-benzo[d]imidazole-6-carboxylic acid] are 620 nM and 2.74%.
As for `N#Cc1ccc(COc2cccc(-c3ccn(Cc4nc5ccc(C(=O)O)cc5n4C[C@@H]4CCO4)c(=O)c3)n2)c(F)c1` [Example 111, (S)-2-((4-(6-(4-cyano-2-fluorobenzyloxy)pyridin-2-yl)-2-oxopyridin-1(2H)-yl)methyl)-1-(oxetan-2-ylmethyl)-1H-benzo[d]imidazole-6-carboxylic acid], at human GLP-1 receptor, the EC50 stood at 20 nM. For the same compound, the inhibition at 2.5 h, 10 µM on hERG is 1.32%.
With `O=C(O)c1ccc2nc(Cc3ccc(-c4cccc(OCc5ccc(F)c(F)c5)n4)c(F)c3)n(C[C@@H]3CCO3)c2c1` [Example 125, (S)-2-(4-(6-((3,4-difluorobenzyl)oxy)pyridin-2-yl)-3-fluorobenzyl)-1-(oxetan-2-ylmethyl)-1H-benzo[d]imidazole-6-carboxylic acid], the EC50 at human GLP-1 receptor stood at 37 nM. Further, the inhibition at 2.5 h, 10 µM on hERG was -19.5%.
With `N#Cc1ccc(COc2cccc(-c3ccc(Cc4nc5ccc(C(=O)O)cc5n4CC4CCO4)cc3F)n2)c(F)c1` (stereo not shown) [Example 114, 2-(4-(6-((4-cyano-2-fluorobenzyl)oxy)pyridin-2-yl)-3-fluorobenzyl)-1-(oxetan-2-ylmethyl)-1H-benzo[d]imidazole-6-carboxylic acid], the EC50 on human GLP-1 receptor was less than 3.2 nM. Further, the inhibition at 2.5 h, 10 µM on hERG was -4.71%.
Take `O=C(O)c1ccc2nc(Cn3ccc(-c4cccc(OCc5ccc(Cl)cc5F)n4)cc3=O)n(CC3CCCO3)c2c1` (stereo not shown) [Example 105, 2-((4-(6-(4-chloro-2-fluorobenzyloxy)pyridin-2-yl)-2-oxopyridin-1(2H)-yl)methyl)-1-((tetrahydrofuran-2-yl)methyl)-1H-benzo[d]imidazole-6-carboxylic acid]: the EC50 at human GLP-1 receptor came to 46 nM. In addition, the inhibition at 2.5 h, 10 µM at hERG was 25.1%.
For `O=C(O)c1ccc2nc(Cc3ccc(-c4cccc(OCc5ccc(Cl)cc5F)n4)cc3F)n(C[C@H]3CCCO3)c2c1` [Example 51, (R)-2-(4-(6-(4-chloro-2-fluorobenzyloxy)pyridin-2-yl)-2-fluorobenzyl)-1-((tetrahydrofuran-2-yl)methyl)-1H-benzo[d]imidazole-6-carboxylic acid], the EC50 at human GLP-1 receptor was 52 nM. Moreover, the inhibition at 2.5 h, 10 µM on hERG is -4.69%.
With `COCCn1c(Cc2ccc(-c3cccc(OCc4ccc(Cl)cc4F)c3)c(F)c2)nc2ccc(C(=O)O)cc21` [Example 39, 2-((3′-(4-chloro-2-fluorobenzyloxy)-2-fluorobiphenyl-4-yl)methyl)-1-(2-methoxyethyl)-1H-benzo[d]imidazole-6-carboxylic acid], the EC50 at human GLP-1 receptor was 250 nM. Further, on hERG, the inhibition at 2.5 h, 10 µM was -12.8%.
`COCCn1c(Cc2ccc(-c3cccc(OCc4ccc(C#N)cc4F)c3)cc2F)nc2ccc(C(=O)O)cc21` [Example 26, 2-((3′-(4-cyano-2-fluorobenzyloxy)-3-fluorobiphenyl-4-yl)methyl)-1-(2-methoxyethyl)-1H-benzo[d]imidazole-6-carboxylic acid]: on human GLP-1 receptor, the EC50 is 270 nM. Besides, the inhibition at 2.5 h, 10 µM on hERG is 2.43%.
For the compound `O=C(O)c1ccc2nc(Cc3ccc(-c4cccc(OCc5ccc(Cl)cc5)n4)cc3F)n(CC3CCCO3)c2c1` (stereo not shown) [Example 75, 2-(4-(6-(4-chlorobenzyloxy)pyridin-2-yl)-2-fluorobenzyl)-1-((tetrahydrofuran-2-yl)methyl)-1H-benzo[d]imidazole-6-carboxylic acid], at human GLP-1 receptor, the EC50 was found to be 23 nM. The inhibition at 2.5 h, 10 µM on hERG is -7.98%.
Take `Cc1cc(-c2cccc(OCc3ccc(Cl)cc3F)n2)ccc1Cc1nc2ccc(C(=O)O)cc2n1CC1CCCO1` (stereo not shown) [Example 69, 2-(4-(6-(4-chloro-2-fluorobenzyloxy)pyridin-2-yl)-2-methylbenzyl)-1-((tetrahydrofuran-2-yl)methyl)-1H-benzo[d]imidazole-6-carboxylic acid]: the EC50 at human GLP-1 receptor is 31 nM. Also, on hERG, the inhibition at 2.5 h, 10 µM is -14.7%.
As for `N#Cc1ccc(COc2cccc(-c3ccc(Cc4nc5ccc(C(=O)O)cc5n4C[C@@H]4CCO4)c(F)c3F)n2)c(F)c1` [Example 113, (S)-2-(4-(6-((4-cyano-2-fluorobenzyl)oxy)pyridin-2-yl)-2,3-difluorobenzyl)-1-(oxetan-2-ylmethyl)-1H-benzo[d]imidazole-6-carboxylic acid], on human GLP-1 receptor, the EC50 is less than 3.2 nM. Moreover, the inhibition at 2.5 h, 10 µM on hERG was -4.94%.
Turning to `COCCn1c(Cc2ccc(-c3cccc(OCc4ccc(C#N)cc4F)n3)cc2F)nc2ccc(C(=O)O)cc21` [Example 25, 2-(4-(6-(4-cyano-2-fluorobenzyloxy)pyridin-2-yl)-2-fluorobenzyl)-1-(2-methoxyethyl)-1H-benzo[d]imidazole-6-carboxylic acid], the EC50 at human GLP-1 receptor stood at 43 nM. Also, the inhibition at 2.5 h, 10 µM at hERG was 18.9%.
As for `O=C(O)c1ccc2nc(Cc3ccc(-c4cccc(OCc5ccc(C(F)(F)F)cc5)n4)c(F)c3)n(C[C@@H]3CCO3)c2c1` [Example 121, (S)-2-(3-fluoro-4-(6-((4-(trifluoromethyl)benzyl)oxy)pyridin-2-yl)benzyl)-1-(oxetan-2-ylmethyl)-1H-benzo[d]imidazole-6-carboxylic acid], at human GLP-1 receptor, the EC50 turned out to be 15 nM. Also, at hERG, the inhibition at 2.5 h, 10 µM is -10.7%.

A word on the EC50: it is the concentration that produces a half-maximal response. In general, inhibition refers to the drop in the measured response relative to a control, in per cent.

Source of the values: patent US12421205B2, “GLP-1 receptor agonist” (HYUNDAI PHARM CO., LTD., priority 2019, dated 2025).
